These compounds were tested against human PDE4D catalytic domain (UniProt no. Q08499) (Homo sapiens (Human), UniProt Q08499) (assay: PDE4 assay (TR-FRET, FAM-cAMP cleavage)). Details: human PDE4D catalytic domain; molar concentration giving 50% inhibition of substrate cleavage; read-out: PDE4 IC50 range.
Format: biochemical
In short: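 PDE4D catalytic domain ([…]) was incubated with unlabelled cAMP plus FAM-cAMP and titrated compound, stopped with binding buffer of metal-ion nanoparticles and Tb donor. AMP generation read by TR-FRET; IC50 as 50% inhibition of cleavage versus controls, reported as nM ranges.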

Sequence of human PDE4D catalytic domain (Q08499 380-740 limits assumed): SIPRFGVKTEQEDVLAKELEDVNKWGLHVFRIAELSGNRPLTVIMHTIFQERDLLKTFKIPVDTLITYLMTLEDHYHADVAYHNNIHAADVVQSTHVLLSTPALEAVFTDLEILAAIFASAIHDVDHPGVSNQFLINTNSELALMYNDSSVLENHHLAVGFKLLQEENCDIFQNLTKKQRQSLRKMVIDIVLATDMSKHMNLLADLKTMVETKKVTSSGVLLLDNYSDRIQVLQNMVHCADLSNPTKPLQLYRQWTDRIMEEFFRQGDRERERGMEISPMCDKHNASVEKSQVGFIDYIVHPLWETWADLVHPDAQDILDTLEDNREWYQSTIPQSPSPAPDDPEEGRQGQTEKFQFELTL

Q: For `CCc1nn(CCCOC(=O)c2ccc(Cl)c(OC)c2)c2c1C(=O)NCC1(CCOCC1)C2` [Example 87, 3-(3-ethyl-4-oxo-spiro[6,8-dihydro-5H-pyrazolo[4,3-c]azepine-7,4′-tetrahydropyran]-1-yl)propyl 4-chloro-3-methoxy-benzoate], which IC50 is on record?
A: < 100 nM

Q: For `CCc1nn(CCCOC(=O)c2cc(Cl)cc(OC)c2)c2c1C(=O)NCC1(CCOCC1)C2` [Example 88, 3-(3-ethyl-4-oxo-spiro[6,8-dihydro-5H-pyrazolo[4,3-c]azepine-7,4′-tetrahydropyran]-1-yl)propyl 3-chloro-5-methoxy-benzoate], which IC50 is on record?
A: < 100 nM

Q: Which IC50 does the source give for `CCc1nn(CCCOC(=O)c2ccc(OC)cc2Cl)c2c1C(=O)NCC1(CCOCC1)C2` [Example 89, 3-(3-ethyl-4-oxo-spiro[6,8-dihydro-5H-pyrazolo[4,3-c]azepine-7,4′-tetrahydropyran]-1-yl)propyl 2-chloro-4-methoxy-benzoate] here?
A: < 100 nM

Q: For `CCc1nn(CCCOC(=O)c2cc(OC)ccc2Cl)c2c1C(=O)NCC1(CCOCC1)C2` [Example 90, 3-(3-ethyl-4-oxo-spiro[6,8-dihydro-5H-pyrazolo[4,3-c]azepine-7,4′-tetrahydropyran]-1-yl)propyl 2-chloro-5-methoxy-benzoate], which IC50 is on record?
A: < 100 nM

Q: How did the IC50 turn out when `CCc1nn(CCCOC(=O)c2cccc(OC)c2Cl)c2c1C(=O)NCC1(CCOCC1)C2` [Example 91, 3-(3-ethyl-4-oxo-spiro[6,8-dihydro-5H-pyrazolo[4,3-c]azepine-7,4′-tetrahydropyran]-1-yl)propyl 2-chloro-3-methoxy-benzoate] was run?
A: < 100 nM

Q: How did the IC50 turn out when `CCc1nn(CCCOC(=O)c2ccc(Cl)cc2OC)c2c1C(=O)NCC1(CCOCC1)C2` [Example 92, 3-(3-ethyl-4-oxo-spiro[6,8-dihydro-5H-pyrazolo[4,3-c]azepine-7,4′-tetrahydropyran]-1-yl)propyl 4-chloro-2-methoxy-benzoate] was run?
A: < 100 nM

Q: Which IC50 does the source give for `CCc1nn(CCCOC(=O)c2cc(Cl)ccc2OC)c2c1C(=O)NCC1(CCOCC1)C2` [Example 93, 3-(3-ethyl-4-oxo-spiro[6,8-dihydro-5H-pyrazolo[4,3-c]azepine-7,4′-tetrahydropyran]-1-yl)propyl 5-chloro-2-methoxy-benzoate] here?
A: < 100 nM

Q: `CCc1nn(CCCOC(=O)c2cccc(Cl)c2OC)c2c1C(=O)NCC1(CCOCC1)C2` [Example 94, 3-(3-ethyl-4-oxo-spiro[6,8-dihydro-5H-pyrazolo[4,3-c]azepine-7,4′-tetrahydropyran]-1-yl)propyl 3-chloro-2-methoxy-benzoate] was tested. Which IC50 did it give?
A: < 100 nM

Q: `CCc1nn(CCCOC(=O)c2ccccc2C(F)(F)F)c2c1C(=O)NCC1(CCOCC1)C2` [Example 95, 3-(3-ethyl-4-oxo-spiro[6,8-dihydro-5H-pyrazolo[4,3-c]azepine-7,4′-tetrahydropyran]-1-yl)propyl 2-(trifluoromethyl)benzoate] was tested. Which IC50 did it give?
A: < 100 nM

Q: `CCc1nn(CCCOC(=O)c2cccc(C(F)(F)F)c2)c2c1C(=O)NCC1(CCOCC1)C2` [Example 96, 3-(3-ethyl-4-oxo-spiro[6,8-dihydro-5H-pyrazolo[4,3-c]azepine-7,4′-tetrahydropyran]-1-yl)propyl 3-(trifluoromethyl)benzoate] was tested. Which IC50 did it give?
A: < 100 nM

Q: With `CCc1nn(CCCOC(=O)c2ccc(C(F)(F)F)cc2)c2c1C(=O)NCC1(CCOCC1)C2` [Example 97, 3-(3-ethyl-4-oxo-spiro[6,8-dihydro-5H-pyrazolo[4,3-c]azepine-7,4′-tetrahydropyran]-1-yl)propyl 4-(trifluoromethyl)benzoate] as the compound, how does the IC50 read?
A: < 100 nM

Q: `CCc1nn(CCCOC(=O)c2ccc(S(C)(=O)=O)cc2)c2c1C(=O)NCC1(CCOCC1)C2` [Example 98, 3-(3-ethyl-4-oxo-spiro[6,8-dihydro-5H-pyrazolo[4,3-c]azepine-7,4′-tetrahydropyran]-1-yl)propyl 4-methylsulfonylbenzoate] was tested. Which IC50 did it give?
A: < 100 nM

Q: With `CCc1nn(CCCOC(=O)c2cccc(S(C)(=O)=O)c2)c2c1C(=O)NCC1(CCOCC1)C2` [Example 99, 3-(3-ethyl-4-oxo-spiro[6,8-dihydro-5H-pyrazolo[4,3-c]azepine-7,4′-tetrahydropyran]-1-yl)propyl 3-methylsulfonylbenzoate] as the compound, how does the IC50 read?
A: < 100 nM

Q: Which IC50 does the source give for `CCc1nn(CCCOC(=O)c2ccccc2S(C)(=O)=O)c2c1C(=O)NCC1(CCOCC1)C2` [Example 100, 3-(3-ethyl-4-oxo-spiro[6,8-dihydro-5H-pyrazolo[4,3-c]azepine-7,4′-tetrahydropyran]-1-yl)propyl 2-methylsulfonylbenzoate] here?
A: < 100 nM

Q: How did the IC50 turn out when `CCc1nn(CCCOC(=O)c2ccc(S(N)(=O)=O)cc2)c2c1C(=O)NCC1(CCOCC1)C2` [Example 101, 3-(3-ethyl-4-oxo-spiro[6,8-dihydro-5H-pyrazolo[4,3-c]azepine-7,4′-tetrahydropyran]-1-yl)propyl 4-sulfamoylbenzoate] was run?
A: < 100 nM

Q: `CCc1nn(CCCOC(=O)c2cccc(S(N)(=O)=O)c2)c2c1C(=O)NCC1(CCOCC1)C2` [Example 102, 3-(3-ethyl-4-oxo-spiro[6,8-dihydro-5H-pyrazolo[4,3-c]azepine-7,4′-tetrahydropyran]-1-yl)propyl 3-sulfamoylbenzoate] was tested. Which IC50 did it give?
A: < 100 nM

Q: For `CCc1nn(CCCOC(=O)c2ccc(C)c(C(F)(F)F)c2)c2c1C(=O)NCC1(CCOCC1)C2` [Example 103, 3-(3-ethyl-4-oxo-spiro[6,8-dihydro-5H-pyrazolo[4,3-c]azepine-7,4′-tetrahydropyran]-1-yl)propyl 4-methyl-3-(trifluoromethyl)benzoate], which IC50 is on record?
A: < 100 nM

Q: Which IC50 does the source give for `CCc1nn(CCCOC(=O)c2cccc(C(F)(F)F)c2C)c2c1C(=O)NCC1(CCOCC1)C2` [Example 104, 3-(3-ethyl-4-oxo-spiro[6,8-dihydro-5H-pyrazolo[4,3-c]azepine-7,4′-tetrahydropyran]-1-yl)propyl 2-methyl-3-(trifluoromethyl)benzoate] here?
A: < 100 nM

Q: `CCc1nn(CCCOC(=O)c2cc(C(F)(F)F)ccc2C)c2c1C(=O)NCC1(CCOCC1)C2` [Example 105, 3-(3-ethyl-4-oxo-spiro[6,8-dihydro-5H-pyrazolo[4,3-c]azepine-7,4′-tetrahydropyran]-1-yl)propyl 2-methyl-5-(trifluoromethyl)benzoate] was tested. Which IC50 did it give?
A: < 100 nM

Q: How did the IC50 turn out when `CCc1nn(CCCOC(=O)c2cccc(F)c2C(F)(F)F)c2c1C(=O)NCC1(CCOCC1)C2` [Example 106, 3-(3-ethyl-4-oxo-spiro[6,8-dihydro-5H-pyrazolo[4,3-c]azepine-7,4′-tetrahydropyran]-1-yl)propyl 3-fluoro-2-(trifluoromethyl)benzoate] was run?
A: < 100 nM

Q: Which IC50 does the source give for `CCc1nn(CCCOC(=O)c2c(F)cccc2C(F)(F)F)c2c1C(=O)NCC1(CCOCC1)C2` [Example 107, 3-(3-ethyl-4-oxo-spiro[6,8-dihydro-5H-pyrazolo[4,3-c]azepine-7,4′-tetrahydropyran]-1-yl)propyl 2-fluoro-6-(trifluoromethyl)benzoate] here?
A: < 100 nM

Q: For `CCc1nn(CCCOC(=O)c2cc(F)cc(C(F)(F)F)c2)c2c1C(=O)NCC1(CCOCC1)C2` [Example 108, 3-(3-ethyl-4-oxo-spiro[6,8-dihydro-5H-pyrazolo[4,3-c]azepine-7,4′-tetrahydropyran]-1-yl)propyl 3-fluoro-5-(trifluoromethyl)benzoate], which IC50 is on record?
A: < 100 nM

Q: For `CCc1nn(CCCOC(=O)c2ccc(F)cc2C(F)(F)F)c2c1C(=O)NCC1(CCOCC1)C2` [Example 109, 3-(3-ethyl-4-oxo-spiro[6,8-dihydro-5H-pyrazolo[4,3-c]azepine-7,4′-tetrahydropyran]-1-yl)propyl 4-fluoro-2-(trifluoromethyl)benzoate], which IC50 is on record?
A: < 100 nM

Q: Which IC50 does the source give for `CCc1nn(CCCOC(=O)c2ccc(C(F)(F)F)c(F)c2)c2c1C(=O)NCC1(CCOCC1)C2` [Example 110, 3-(3-ethyl-4-oxo-spiro[6,8-dihydro-5H-pyrazolo[4,3-c]azepine-7,4′-tetrahydropyran]-1-yl)propyl 3-fluoro-4-(trifluoromethyl)benzoate] here?
A: < 100 nM

Q: With `CCc1nn(CCCOC(=O)c2ccc(F)c(C(F)(F)F)c2)c2c1C(=O)NCC1(CCOCC1)C2` [Example 111, 3-(3-ethyl-4-oxo-spiro[6,8-dihydro-5H-pyrazolo[4,3-c]azepine-7,4′-tetrahydropyran]-1-yl)propyl 4-fluoro-3-(trifluoromethyl)benzoate] as the compound, how does the IC50 read?
A: < 100 nM

Q: Which IC50 does the source give for `CCc1nn(CCCOC(=O)c2cc(C(F)(F)F)ccc2F)c2c1C(=O)NCC1(CCOCC1)C2` [Example 112, 3-(3-ethyl-4-oxo-spiro[6,8-dihydro-5H-pyrazolo[4,3-c]azepine-7,4′-tetrahydropyran]-1-yl)propyl 2-fluoro-5-(trifluoromethyl)benzoate] here?
A: < 100 nM

Q: How did the IC50 turn out when `CCc1nn(CCCOC(=O)c2ccc(C(F)(F)F)cc2F)c2c1C(=O)NCC1(CCOCC1)C2` [Example 113, 3-(3-ethyl-4-oxo-spiro[6,8-dihydro-5H-pyrazolo[4,3-c]azepine-7,4′-tetrahydropyran]-1-yl)propyl 2-fluoro-4-(trifluoromethyl)benzoate] was run?
A: < 100 nM

Q: For `CCc1nn(CCCOC(=O)c2cccc(S(=O)(=O)CC)c2)c2c1C(=O)NCC1(CCOCC1)C2` [Example 114, 3-(3-ethyl-4-oxo-spiro[6,8-dihydro-5H-pyrazolo[4,3-c]azepine-7,4′-tetrahydropyran]-1-yl)propyl 3-ethylsulfonylbenzoate], which IC50 is on record?
A: < 100 nM

Q: How did the IC50 turn out when `CCc1nn(CCCOC(=O)c2ccc(S(=O)(=O)CC)cc2)c2c1C(=O)NCC1(CCOCC1)C2` [Example 115, 3-(3-ethyl-4-oxo-spiro[6,8-dihydro-5H-pyrazolo[4,3-c]azepine-7,4′-tetrahydropyran]-1-yl)propyl 4-ethylsulfonylbenzoate] was run?
A: < 100 nM

Q: How did the IC50 turn out when `CCc1nn(CCCOC(=O)c2cccc(S(=O)(=O)NC)c2)c2c1C(=O)NCC1(CCOCC1)C2` [Example 116, 3-(3-ethyl-4-oxo-spiro[6,8-dihydro-5H-pyrazolo[4,3-c]azepine-7,4′-tetrahydropyran]-1-yl)propyl 3-(methylsulfamoyl) benzoate] was run?
A: < 100 nM

Q: With `CCc1nn(CCCOC(=O)c2ccc(S(=O)(=O)NC)cc2)c2c1C(=O)NCC1(CCOCC1)C2` [Example 117, 3-(3-ethyl-4-oxo-spiro[6,8-dihydro-5H-pyrazolo[4,3-c]azepine-7,4′-tetrahydropyran]-1-yl)propyl 4-(methylsulfamoyl) benzoate] as the compound, how does the IC50 read?
A: < 100 nM
